≈ marks a conversion by molar mass, not a printed value.
Columns and labels:
E. coli ATCC 25922 = experiment: MIC assay (CLSI broth microdilution), AECO001; format: cell-based; conditions: Escherichia coli; AECO001 is ATCC25922 (E. coli); Mueller Hinton Broth, 35 C, 20 hours
Protocol: (§1) Minimum inhibitory concentrations (MIC) were determined by reference Clinical and Laboratory Standards Institute (CLSI) broth microdilution methods per M7-A7 [2006]. Quality control ranges utilizing E. coli ATCC 25922, P. aeruginosa ATCC 27853 and S. aureus ATCC 29213, and interpretive criteria for comparator agents were as published in CLSI M100-S17 [2007]. Briefly, serial two-fold dilutions of the test compounds were prepared at 2× concentration in Mueller Hinton Broth. The compound dilutions were mixed in 96-well assay plates in a 1:1 ratio with bacterial inoculum. The inoculum was prepared by suspension of a colony from an agar plate that was prepared the previous day. Bacteria were suspended in sterile saline and added to each assay plate to obtain a final concentration of 5×10^5 CFU/mL. The plates were incubated at 35 C for 20 hours in ambient air.

P. aeruginosa ATCC 27853 = experiment: MIC assay (CLSI broth microdilution), APAE001; format: cell-based; conditions: Pseudomonas aeruginosa; APAE001 is ATCC27853 (P. aeruginosa); Mueller Hinton Broth, 35 C, 20 hours
Protocol: as §1

Row | MIC (E. coli ATCC 25922) [µg/mL] | MIC (P. aeruginosa ATCC 27853) [µg/mL] | Compound
1 | ≤ 1 | ≤ 1 | NC[C@@H]1CC[C@@H](N)[C@@H](O[C@H]2[C@H](O[C@@H]3O[C@H](CO)[C@@H](O[C@H]4O[C@@H](CN)CC[C@H]4N)[C@H]3O)[C@@H](O)[C@H](NC(=O)[C@@H](O)C(F)(F)CN)C[C@@H]2N)O1 [Example 26/Compound 6, 3′,4′,3′″,4′″-tetra-deoxy-1-(4-amino-3,3-bisfluoro-2(R)-hydroxy-butyryl)-neomycin]
2 | 1 to 16 (≈ 1.45 to 23.3 µM) | 1 to 16 (≈ 1.45 to 23.3 µM) | NC[C@@H]1CC[C@@H](N)[C@@H](O[C@H]2[C@H](O[C@@H]3O[C@H](CO)[C@@H](O[C@H]4O[C@@H](CN)CC[C@H]4N)[C@H]3O)[C@@H](O)[C@H](NC(=O)[C@H](O)C(F)(F)CN)C[C@@H]2N)O1 [Example 27/Compound 6, 3′,4′,3′″,4′″-tetra-deoxy-1-(4-amino-3,3-bisfluoro-2(S)-hydroxy-butyryl)-neomycin]
3 | ≤ 1 | ≤ 1 | NC[C@@H]1CC[C@@H](N)[C@@H](O[C@H]2[C@H](O[C@@H]3O[C@H](CO)[C@@H](O[C@H]4O[C@@H](CN)CC[C@H]4N)[C@H]3O)[C@@H](O)[C@H](NC(=O)[C@@H](O)[C@@H](O)CN)C[C@@H]2N)O1 [Example 28/Compound 6, 3′,4′,3′″,4′″-tetra-deoxy-1-(4-amino-3,2-(S,S)-bis-hydroxy-butyryl)-neomycin]
4 | 1 to 16 (≈ 1.5 to 24 µM) | ≤ 1 | NC[C@@H]1CC[C@@H](N)[C@@H](O[C@H]2[C@H](O[C@@H]3O[C@H](CO)[C@@H](O[C@H]4O[C@@H](CN)CC[C@H]4N)[C@H]3O)[C@@H](O)[C@H](NC(=O)[C@H](O)[C@H](O)CN)C[C@@H]2N)O1 [Example 29/Compound 6, 3′,4′,3′″,4′″-tetra-deoxy-1-(4-amino-3,2-(R,R)-bis-hydroxy-butyryl)-neomycin]
